≈ marks a conversion by molar mass, not a printed value. Where a name gives a salt, the structure may show the parent alone. Read-outs that look alike come from different tables or passages of the source. Blank lines part the entries; values can stand above or below the molecule they belong to.
Tests used:
[1] = test system: P. aeruginosa PAO1 wild type cells; assay: Planktonic growth inhibition, minimum inhibitory concentration; assay type: cell-based; settings: M9 minimal medium, 20 h growth, OD600nm of 35% or less
[2] = test system: Established P. aeruginosa biofilms; assay: Anti-biofilm efficacy of tobramycin or ciprofloxacin with compound 21 (Table 1); assay type: cell-based; settings: tobramycin 80 μg/mL or ciprofloxacin 5 μg/mL, 1 h, mean ± SEM
Excerpt: Values represent the log-fold reductions in cfu compared to control biofilms and are the mean of two independent experiments (±SEM).

[3] = test system: extracellular β-lactamases of P. aeruginosa; assay type: biochemical; settings: P. aeruginosa culture treated 1 h; imipenem 0.5 μg/ml or ampicillin 100 μg/ml
Procedure: (c) Nitric oxide release in the presence of supernatants of P. aeruginosa cultures grown for 5 h in the absence of antibiotic then treated for 1 h with extracellular β-lactamase-inducing imipenem a 0.5 μg/ml (thick line) or ampicillin at 100 μg/ml (dotted line). Arrows indicate addition of the following to a reaction vial containing 10 mL Tris buffer at pH 7.0: (i) 10 μL of 150 mM Compound 15, (ii) 500 μL supernatant, (iii) 500 μL supernatant, (iv) PTIO.

[4] = test system: P. aeruginosa PAO1 wild type biofilms; assay: Biofilm dispersal assay, 24-well batch culture, PAO1; assay type: cell-based; settings: 10 min exposure, alone
Procedure: P. aeruginosa PAO1 wild type ATCC and MA67 strains, P. aeruginosa FRD1, a mucoid, cystic fibrosis (CF) isolate (Oilman and Chakrabarty, 1981), and the clinical strain P. aeruginosa 18A, which was isolated from CF sputum samples of chronically infected individual in Tasmania (Kirov et al, 2007) were used for biofilm dispersal assays. Biofilms were grown in M9 minimal medium (containing 48 mM Na2HPO4, 22 mM KH2PO4, 9 mM NaCl, 19 mM NH4Cl, pH 7.2, 2 mM MgSO4, 20 mM glucose, and 100 μM CaCl2) in 24-well plates batch cultures at 37° C. with shaking at 200 rpm. After 6 h incubation for PAO1 wild-type biofilms or 24 h incubation for FRD1 and 18A biofilms, treatments were added to each well in less than 1 min per plate and the plates were incubated for a further 10 min at 37° C. with shaking at 200 rpm. Planktonic biomass was quantified by direct measurement of OD600 of the supernatant, and the remaining biofilm biomass was quantified by crystal violet staining (O'Toole and Kolter, 1998).

[5] = test system: P. aeruginosa NSGFP reporter strain (nirS-GFP); assay type: cell-based; settings: control treatments alone
Procedure: To study nitric oxide release in intact cells of P. aeruginosa, the P. aeruginosa NSGFP reporter strain was used (Barraud et al., 2009). This strain harbours a gene reporter construct that expresses green fluorescent protein (GFP) when the nitric oxide-inducible nirS gene is expressed. P. aeruginosa NSGFP cells were grown with or without ampicillin at subinhibitory concentration (50 μg/ml) to induce β-lactamase activity.

[6] = test system: β-lactamase (penicillinase, Sigma Aldrich); assay: Amperometric nitric oxide release on exposure to penicillinase; assay type: biochemical; settings: non-NO-releasing cephalosporin alone, in the presence or absence of penicillinase
Procedure: Arrows indicate addition of the following to a reaction vial containing 10 mL Tris buffer at pH 7.0: (a) 10 μL of 100 mM cephalosporin-3′-diazeniumdiolate, (b) 10 μl 1 U/μl penicillinase, (c) 20 μl 1 U/μl penicillinase, (d) 80 μL of 10 mM free radical scavenger PTIO.
Amperometric characterization of nitric oxide release from Compound 15. (a) Nitric oxide release in the presence of penicillinase at varying pH. Arrows indicate addition of the following to a reaction vial containing 10 mL Tris buffer at pH 9.0 (thick line), 7.0 (dashed line) or 5.0 (dotted line): (i) 10 μL of 150 mM Compound 15, (ii) 5 μL of 0.1 U/μL penicillinase, (iii) 10 μL of 0.1 U/μL penicillinase, (iv) 80 μL of 10 mM free radical scavenger PTIO. (b) Nitric oxide release in the presence of β-lactamase-expressing P. aeruginosa (thick line) or non-β-lactamase-expressing E. coli (dotted line) cell extracts. Arrows indicate addition of the following to a reaction vial containing 10 mL Tris buffer at pH 7.0: (i) 10 μL of 150 mM Compound 15, (ii) 100 μL cell extract, (iii) 200 μL cell extract, (iv) PTIO. […] The data is representative of at least three independent experiments. […]

melting point: 35 to 37 °C
SMILES: CCN(CC)/[N+]([O-])=N/OCC1=C(C(=O)O)N2C(=O)C(NC(=O)Cc3ccccc3)C2SC1 (stereo not drawn) (as salt: potassium) [Compound 21]

melting point: 84 to 86 °C
SMILES: CCN(CC)/[N+]([O-])=N/OCC1=C(C(=O)O)N2C(=O)C(NC(=O)Cc3ccccc3)C2SC1 (stereo not drawn) [Compound 15]

SMILES: CCN(CC)[N+]([O-])=N[O-].[Na+] [DEA, O^2-sodium 1-(N,N-diethylamino)diazen-1-ium-1,2-diolate]
MIC [1]: 16 mM

SMILES: NC[C@H]1O[C@H](O[C@H]2[C@H](O)[C@@H](O[C@H]3O[C@H](CO)[C@@H](O)[C@H](N)[C@H]3O)[C@H](N)C[C@@H]2N)[C@H](N)C[C@@H]1O [Tobramycin]
Log Reduction in Biofilm cfu ([2]; Compound 21 0 μM (antibiotic alone)): 2.15 ± 0.16
Log Reduction in Biofilm cfu ([2]; with Compound 21 10 μM): 3.92 ± 0.06
Log Reduction in Biofilm cfu ([2]; with Compound 21 100 μM): 3.58 ± 0.15

SMILES: CC1(C)S[C@@H]2[C@H](NC(=O)[C@H](N)c3ccccc3)C(=O)N2[C@H]1C(=O)O [ampicillin]
induction of extracellular β-lactamase expression [3]: failure of ampicillin to induce expression

SMILES: CC(=O)OCC1=C(C(=O)O)N2C(=O)[C@@H](NC(=O)Cc3cccs3)[C@H]2SC1 [cephalothin]
biofilm dispersal [4]: did not induce significant dispersal events
MIC ([1]; Pseudomonas aeruginosa, PAO1, read-out: MIC): 16 mM (≈ 6340 µg/mL)
GFP fluorescence [5]: no effect on GFP fluorescence
nitric oxide release [6]: no release of nitric oxide was observed
nitric oxide release ([6]; listed as cefalotin): undetectable
